Converted amounts (≈) assume the structure as drawn. Like-named read-outs stand apart in the source and are kept apart here.
Key:
[1] = Bioavailability study of flavonoid dimer 39, oral feeding vs i.v.; format: in vivo, Balb/c mice; settings: in 50% PEG, 30 minutes
Experimental: Amine-linked flavonoid dimers are disclosed in prior studies to be sparingly soluble in aqueous medium. Their poor oral bioavailability is confirmed by in vivo study in mice. […] Plasma concentration of 39 was determined 30 minutes after oral feeding or i.v. administration. […] Such low bioavailability precluded 39 from being used as an oral antileishmanial agent in the future.

Water solubility = format: physicochemical
Description: In terms of physicochemical properties, all flavonoid monomers listed as active against either L. amazonensis (Table 3A) or L. donovani (Table 3B) are smaller than 39, and have fewer H-bond donors and acceptors. They also have a lower calculated ACDLogP (1.978 to 4.537) than 39 (5.104), except FM05 (5.011), FM17 (5.101) and FM19 (5.451). The lower ACDLogP values mean more water soluble; better partition between hydrophilic and hydrophobic phases and potentially easier to be absorbed orally. Indeed, these flavonoid monomers are highly water soluble (up to about 40 mg/mL of the hydrochloride salt) whereas 39 is not (up to about 4 mg/ml).

L. amazonensis = settings: cutaneous leishmaniasis murine model; cited from earlier work
[2] = test system: L. braziliensis UA847 amastigotes; assay: Anti-amastigote activity in infected PEM, L. braziliensis UA847; format: cell-based; settings: Leishmania braziliensis, 72 h, 3 days, Giemsa, read-out: Anti-amastigote activity IC50, L. baziliensis UA847
Method in brief: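 Adherent mouse PEM are infected with late-log promastigotes (20 parasites per macrophage) for 24 h, washed, and cultured with drug in supplemented DMEM with 10% FBS for 72 h at 37 °C. Percent infected cells and amastigotes per 100 macrophages are scored by Giemsa staining and IC50 is derived.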

[3] = test system: L. donovani HU3 promastigotes; assay: Anti-promastigote activity (MTS assay), L. donovani HU3; format: cell-based; settings: Leishmania donovani, 72 hours
Method in brief: (§1)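 Promastigotes (1×10^5 per well) in Schneider's medium pH 6.9 with 10% FBS, exposed to serial compound concentrations for 72 h at 27 °C. Viability by MTS/PMS reduction over 4 h, OD 490 nm; IC50 derived.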

[4] = test system: L. amazonensis promastigotes; assay: Mitochondrial membrane potential (rhodamine 123) and survivors (MTS) of promastigotes; format: cell-based; settings: for viability at 10 µM: Leishmania amazonensis, read-out: % of viable cells (MTS)
Experimental: 1×10^7 promastigotes were seeded into each well of 6-well plate. The promastigotes were incubated with different concentrations (0, 1.25, 2.5, 5 and 10 μM) of FM09 for 24 and 48 hr, respectively. After incubation, promastigotes were washed two times with 1×PBS and resuspended with 1000 μL of supplemented Schneider's Insect media containing 10 μg/mL of rhodamine 123 in an Eppendorf. The promastigotes were incubated with rhodamine 123 at room temperature for 40 min with shaking. After incubation, promastigotes were washed one time with cold 1×PBS and then re-suspended with 100 μL of 1×PBS. The fluorescent level of rhodamine 123 was measured with a microplate reader (excitation: 485 nm and emission: 520 nm).
L. amazonensis promastigotes were cultivated in different concentration (0, 1.25, 2.5, 5 and 10 μM) of FM09 for 24 hr or 48 hr. The promastigotes were washed and exposed to rhodamine 123 (10 μg/mL) for 40 min. The level of rhodamine 123 accumulation was measured at 520 nm using 485 nm as an excitation wavelength. 0.2% DMSO was used as a solvent control. The values were presented as mean±standard error of mean.

[5] = test system: L. amazonensis LV78 promastigotes; assay: Anti-promastigote activity (MTS assay), L. amazonensis LV78; format: cell-based; settings: Leishmania amazonensis, 72 hours
Method in brief: as §1

[6] = Pharmacokinetics study of FM09, FM09h and FM05b, iv and oral; format: in vivo, Balb/c mice; settings: 50 mg/kg oral
Experimental: Animals were sacrificed at the indicated time point and plasma level of the corresponding flavonoids were determined using LC-MSMS. IC50 of corresponding flavonoids are indicated. Bioavailability (F) was calculated by dividing the dose-adjusted area under curve (AUC) of that of orally-fed over intravenously administered animals.

Row | Plasma level after oral feeding relative to i.v. group [1] [%] | solubility (Water solubility) [µg/mL] | IC50 [2] [nM] | IC50 [3] [nM] | IC50 [5] [nM] | Clearance from plasma after oral feeding [6] | bioavailability ([6]; Balb/c, mouse, plasma, 10 mg/kg iv, dose-adjusted AUC oral over iv, read-out: Bioavailability (F)) [%] | SMILES | Foot pad lesion size (L. amazonensis) | Mitochondrial potential (rhodamine 123 accumulation) ([4]; 0-10 μM, 24 hr and 48 hr, dose-dependent) | % of survivors (MTS) ([4]; 1.25 μM, 24 hr and 48 hr) | % of survivors (MTS) ([4]; 2.5 μM, 24 hr and 48 hr) | % of survivors (MTS) ([4]; 5 μM, 24 hr) [%] | % of survivors (MTS) ([4]; 5 μM, 48 hr) [%] | viability at 10 µM ([4]; 24 hr) [%] | viability at 10 µM ([4]; 48 hr) [%]
1 | < 1 | ~4000 (≈ 5.52 mM) | – | – | – | – | – | O=c1cc(-c2ccc(OCCOCCN(CCOCCOc3ccc(-c4cc(=O)c5ccccc5o4)cc3)Cc3ccncc3)cc2)oc2ccccc12 [compound 39] | effective in reducing foot pad lesion size | – | – | – | – | – | – | –
2 | – | – | 600 ± 100 | 500 ± 200 | 1000 ± 300 | rapidly cleared | 14 | O=c1cc(-c2ccc(OCCOCCN(Cc3ccccn3)Cc3ccccn3)cc2)oc2ccccc12 [FM09, 2-(4-(2-(2-(bis(pyridin-2-ylmethyl)amino)ethoxy)ethoxy)phenyl)-4H-chromen-4-one] | – | drop of mitochondrial potential | about 100% | about 100% | 68 | 88 | 29 | 23
